pIC50: −log10 of the molar value.
Test system: 885724-159-R-J1-PDC complex spheroid viability
Assay: Anticancer human tumor 885724-159-R-J1-PDC patient-derived pancreatic adenocarcinoma cell line growth inhibition [POLQ]
Conditions: for pIC50: curve of first compound; for viability, T/C: stronger effect = lower value; active = viability on the fitted dose curve at most 10% of control; inactive = the rest
How it was run: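 PDC + HUVEC + MSC complex spheroids; POLQ inhibitors ± partner drugs; top conc. at/near clinical Cmax, else 10 microM (SN-38 1 microM), half-log dilutions; 37 degrees C, 5% CO2.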

[1] = second compound 0.0316 µM, first compound 0.0316 µM
[2] = second compound 0.0316 µM, first compound 0.1 µM
[3] = second compound 0.0316 µM, first compound 0.316 µM
[4] = second compound 0.0316 µM, first compound 1 µM
[5] = second compound 0.0316 µM, first compound 3.16 µM
[6] = second compound 0.0316 µM, first compound 10 µM
[7] = second compound 0.1 µM, first compound 0.0316 µM
[8] = second compound 0.1 µM, first compound 0.1 µM
[9] = second compound 0.1 µM, first compound 0.316 µM
[10] = second compound 0.1 µM, first compound 1 µM
[11] = second compound 0.1 µM, first compound 3.16 µM
[12] = second compound 0.1 µM, first compound 10 µM
[13] = second compound 0.316 µM, first compound 0.0316 µM
[14] = second compound 0.316 µM, first compound 0.1 µM
[15] = second compound 0.316 µM, first compound 0.316 µM
[16] = second compound 0.316 µM, first compound 1 µM
[17] = second compound 0.316 µM, first compound 3.16 µM
[18] = second compound 0.316 µM, first compound 10 µM
[19] = second compound 1 µM, first compound 0.0316 µM
[20] = second compound 1 µM, first compound 0.1 µM
[21] = second compound 1 µM, first compound 0.316 µM
[22] = second compound 1 µM, first compound 1 µM
[23] = second compound 1 µM, first compound 3.16 µM
[24] = second compound 1 µM, first compound 10 µM
[25] = second compound 3.16 µM, first compound 0.0316 µM
[26] = second compound 3.16 µM, first compound 0.1 µM
[27] = second compound 3.16 µM, first compound 0.316 µM
[28] = second compound 3.16 µM, first compound 1 µM
[29] = second compound 3.16 µM, first compound 3.16 µM
[30] = second compound 3.16 µM, first compound 10 µM
[31] = second compound 10 µM, first compound 0.0316 µM
[32] = second compound 10 µM, first compound 0.1 µM
[33] = second compound 10 µM, first compound 0.316 µM
[34] = second compound 10 µM, first compound 1 µM
[35] = second compound 10 µM, first compound 3.16 µM
[36] = second compound 10 µM, first compound 10 µM
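Also: spheroids exposed to compounds for 7 days.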

CC1COCCN1c1cc(-c2ccnn2C)c2ccnc(-c3ccn[nH]3)c2n1 (stereo unspecified) + Nc1ccc(C#CCN(C(=O)Cc2ncc(C(F)(F)F)cc2C(F)(F)F)c2ccc(F)cc2)nn1
inactive: viability, T/C [1] 95.7% | viability, T/C [2] 60.6% | viability, T/C [3] 51% | viability, T/C [4] 43.9% | viability, T/C [5] 47.7% | viability, T/C [6] 44.4% | viability, T/C [7] 108% | viability, T/C [8] 60.8% | viability, T/C [9] 49.6% | viability, T/C [10] 48.1% | viability, T/C [11] 42.7% | viability, T/C [12] 39.5% | viability, T/C [13] 96.1% | viability, T/C [14] 58.4% | viability, T/C [15] 49.7% | viability, T/C [16] 47.5% | viability, T/C [17] 46.4% | viability, T/C [18] 39.1% | viability, T/C [19] 90% | viability, T/C [20] 52.3% | viability, T/C [21] 49% | viability, T/C [22] 47.5% | viability, T/C [23] 49.9% | viability, T/C [24] 38.4% | viability, T/C [25] 95.9% | viability, T/C [26] 61.5% | viability, T/C [27] 48.4% | viability, T/C [28] 45.2% | viability, T/C [29] 43.4% | viability, T/C [30] 43.8% | viability, T/C [31] 106% | viability, T/C [32] 64% | viability, T/C [33] 52.4% | viability, T/C [34] 49.3% | viability, T/C [35] 46.6% | viability, T/C [36] 42.5%
6.34: pIC50 (second compound 10 µM)
6.57: pIC50 (second compound 0.316 µM)
6.75: pIC50 (second compound 1 µM)
6.53: pIC50 (second compound 0.0316 µM)
6.56: pIC50 (second compound 0.1 µM) | pIC50 (second compound 3.16 µM)

COc1cccc2c1C(=O)c1c(O)c3c(c(O)c1C2=O)CC(O)(C(=O)CO)CC3OC1CC(N)C(O)C(C)O1 (stereo unspecified) + COC1C(OC(N)=O)C(O)C(Oc2ccc3c(O)c(NC(=O)c4ccc(O)c(CC=C(C)C)c4)c(=O)oc3c2C)OC1(C)C
6.71: pIC50 (second compound 3.16 µM) | pIC50 (second compound 10 µM)
6.72: pIC50 (second compound 1 µM)
inactive: viability, T/C [1] 71.6% | viability, T/C [2] 91.5% | viability, T/C [3] 31.9% | viability, T/C [7] 71% | viability, T/C [8] 89.4% | viability, T/C [9] 31.5% | viability, T/C [13] 71% | viability, T/C [14] 93.2% | viability, T/C [15] 29% | viability, T/C [19] 65% | viability, T/C [20] 90.5% | viability, T/C [21] 28.9% | viability, T/C [25] 69.5% | viability, T/C [26] 92% | viability, T/C [27] 28.7% | viability, T/C [31] 64.2% | viability, T/C [32] 85.7% | viability, T/C [33] 32.2%
active: viability, T/C [4] 11.6% | viability, T/C [5] 6% | viability, T/C [6] 7.47% | viability, T/C [10] 10.3% | viability, T/C [11] 5.36% | viability, T/C [12] 7.37% | viability, T/C [16] 9.53% | viability, T/C [17] 5.31% | viability, T/C [18] 7.84% | viability, T/C [22] 10.3% | viability, T/C [23] 5.98% | viability, T/C [24] 7.87% | viability, T/C [28] 7.45% | viability, T/C [29] 6% | viability, T/C [30] 7.69% | viability, T/C [34] 7.9% | viability, T/C [35] 6.39% | viability, T/C [36] 7.8%
6.70: pIC50 (second compound 0.316 µM)
6.69: pIC50 (second compound 0.1 µM)
6.68: pIC50 (second compound 0.0316 µM)

CC1COCCN1c1cc(C2(O)CC3CCC(C2)O3)c2cnn(-c3ccn[nH]3)c2n1 (stereo unspecified) + Cc1cccc(N(C)C(=O)C2C(O)CCN2c2nc(C)cc(C(F)(F)F)c2C#N)c1
6.82: pIC50 (second compound 0.316 µM)
6.85: pIC50 (second compound 0.0316 µM)
6.61: pIC50 (second compound 0.1 µM)
inactive: viability, T/C [1] 74.4% | viability, T/C [2] 51.4% | viability, T/C [3] 41.6% | viability, T/C [4] 39.6% | viability, T/C [5] 35.4% | viability, T/C [6] 28.5% | viability, T/C [7] 72% | viability, T/C [8] 58.1% | viability, T/C [9] 47.6% | viability, T/C [10] 39.3% | viability, T/C [11] 35.4% | viability, T/C [12] 30.8% | viability, T/C [13] 70.4% | viability, T/C [14] 46.9% | viability, T/C [15] 47.2% | viability, T/C [16] 41% | viability, T/C [17] 35.3% | viability, T/C [18] 28.8% | viability, T/C [19] 77.3% | viability, T/C [20] 56.7% | viability, T/C [21] 41.4% | viability, T/C [22] 40% | viability, T/C [23] 33.2% | viability, T/C [24] 27.1% | viability, T/C [25] 68.8% | viability, T/C [26] 55.8% | viability, T/C [27] 49.4% | viability, T/C [28] 43.2% | viability, T/C [29] 36.5% | viability, T/C [30] 29.2% | viability, T/C [31] 70.6% | viability, T/C [32] 54.2% | viability, T/C [33] 48.8% | viability, T/C [34] 38.1% | viability, T/C [35] 36% | viability, T/C [36] 29%
6.52: pIC50 (second compound 3.16 µM)
6.65: pIC50 (second compound 10 µM)
6.73: pIC50 (second compound 1 µM)
